# From patent publication US10130677B2, “Antimicrobial peptide and uses thereof” (priority 2013, dated 2018)
# Where two headings read alike, the source gives them in different places.
# Experiments:
# [1] = test system: S. aureus JAR060131 biofilm formation; format: cell-based, Staphylococcus aureus
# Protocol: After solubilization with ethanol, the optical density at 590 nm is determined as a measure of biofilm mass.
# Peptides were incubated with 1×10^8 CFU/ml of S. aureus JAR060131 in biofilm-adjusted BM2 in 96-wells polypropylene plates as described in Antimicrob Agents Chemother 2012; 56: 2696-2704. After 24 hours incubation at 37° C., planktonic bacteria were removed by four washes with PBS and biofilms were stained with crystal violet. After solubilization with ethanol, the optical density at 590 nm was determined as a measure of biofilm mass.
# To assess the antibiofilm activity of the peptides in the presence of plasma, 96-wells polypropylene plates were coated with plasma by overnight incubation with 20% plasma at 4° C. Wells were washed once with sterile water and inoculated with S. aureus and peptides as described above.
# [2] = test system: LPS (E. coli 054)-induced IL-12p40 production; assay: LPS neutralization in whole human blood; format: cell-based
# Text: (§1) The term “anti-inflammatory activity” of a polypeptide as used herein refers to inhibiting, reducing or preventing an inflammatory response in a subject that has been infected by microbes, e.g. bacteria, viruses, fungi, and/or parasites. Anti-inflammatory activity of polypeptides of the invention is achieved by inhibiting, reducing or preventing the release of pro-inflammatory microbial compounds, such as lipoteichoic acid (LTA), peptidoglycan (PG) and/or lipopolysaccharides (LPS). Anti-inflammatory activity can be measured by methods known in the art. Examples of such method are a LPS neutralization assay and a LTA neutralization assay as described in the Examples of this application. In such method, a polypeptide of the invention is mixed with a fixed concentration of LPS or LTA, such as 500 ng/ml LPS or 2 mg/ml LTA, and incubated for 30 min. Thereafter, these mixtures were added to diluted fresh human whole blood and 20 hours thereafter the level of cytokines (e.g. 1L-8 for LTA and 1L-12p40 for LPS) in the blood sample are measured by ELISA.
# (§2) Peptides were pre-incubated with 500 ng/ml LPS (E. coli 054) or 2 mg/ml LTA (S. aureus, endotoxin-free) or 1×10^9 CFU/ml of UV-killed S. aureus JAR060131 for 30 min at 37° C. Diluted whole human blood was stimulated with the peptide-LPS/LTA/S. aureus mixtures for 20 hours at 37° C. IL-12p40 and IL-8 levels in supernatants were determined using ELISA.
# [3] = test system: S. aureus JAR060131; format: cell-based, Staphylococcus aureus; conditions: approx. 1 × 10^6 CFU/ml S. aureus JAR, within 2 hrs (Table 2)
# Protocol: Polypeptides of the invention preferably have an in vitro IC99.9 of at most 150 μM after 2 hours at 37° C. against at least one microbial species in the presence of 50% plasma. Said IC99.9 is preferably determined in accordance with a method for determining the antimicrobial activity as described herein in the Examples. Said method described in the Examples for determining antimicrobial activity of microbes not associated with biofilm involves the mixing of 50 microL of a solution of a polypeptide in PBS with addition of human plasma at a final concentration of 50% and 20 microL of bacterial suspension with 5×10^6 CFU per mL of PBS in a well. After incubation of this mixture for 2 hours at 37° C. under shaking conditions, a sample is used for assessment of the bacterial counts. The lowest peptide concentration at which there is 99.9% of bacteria killed, is called the inhibitory concentration (IC) 99.9. Bacterial counts can be determined by manual CFU counting. For determining antibacterial activity for instance 1×10^6 CFU/ml bacteria are used, for determining antifungal activity for instance 1×10^5 cells/ml are used.
# (§3) Peptides were incubated with 1×10^6 CFU/ml of a mid-logarithmic culture of S. aureus JAR060131, methicillin resistant S. aureus (MRSA) LUH14616, Staphylococcus epidermidis RP62a, and Pseudomonas aeruginosa PAO1 in PBS without or with addition of pooled human plasma (Sanquin, Amsterdam, the Netherlands) at a final concentration of 50%. Antimicrobial activity is expressed as the 99.9% lethal concentration (LC99.9), i.e., the lowest peptide concentration which killed ≥99.9% of bacteria after 2 hours of incubation at 37° C. under shaking conditions.
# [4] = test system: Staphylococcus epidermidis RP62a; format: cell-based; conditions: 50% plasma
# Protocol: as §3
# [5] = test system: A. niger PagsA-lux; assay: Effect on fungal growth; format: cell-based, Aspergillus niger
# Protocol: The effect of the peptides on fungal growth was assessed using Aspergillus niger. Peptides were incubated with 7.5×10^4 spores/ml of A. niger PagsA-lux in PBS without or with addition of pooled human plasma at a final concentration of 25%. As positive control, spores were treated with the antifungal caspofungin (Cancidas). Absorbance was measured over time and at 16 hours, fungal growth was visualized using light microscopy.
# [6] = test system: LTA (S. aureus)-induced IL-8 production; assay: LTA neutralization in whole human blood; format: cell-based
# Text: as §1, §2
# [7] = test system: UV-killed S. aureus JAR060131-induced IL-8 production; assay: S. aureus neutralization in whole human blood; format: cell-based
# Protocol: as §2
substance,measurement,setting,value
"Ac-LKRVWKRVFKLLKRYWRQLKKPVR-NH2 [Peptide P148, J LKRVWKRVFKLLKRYWRQLKKPVR B]",IC50,"[1]; JAR060131 biofilm formation, 24 h",12800 nM
same,"concentration needed to inhibit biofilm formation for 50%, relative to OP-145 and P159",[1]; plasma-coated wells (FIG. 3B),two-fold higher concentration
same,IC90,"[2]; LPS-induced IL-12p40, blood from two donors",0.25 nM
same,IC50,"[2]; diluted whole human blood, 20 hours",0.03 nM
same,IC99.9,[3]; 50% plasma,12.8 µM
same,IC99.9,[3]; PBS,1.6 µM
same,higher bactericidal activity as compared to OP-145,[4],43 fold
same,concentration inhibiting A. niger growth,"[5]; 25% plasma, light micrographs only, 16 hours (FIG. 2)",102.4 µM
same,fold higher antifungal activity as compared to OP-145,[5]; PBS,4 fold
same,concentration inhibiting A. niger growth (by >99.9%),"[5]; PBS, optical density (FIG. 1)",0.8 µM
same,fold increased LTA-neutralizing ability versus OP-145,[6],4 fold
same,IC50,"[6]; LTA-induced IL-8, blood from one donor",0.195 µM
same,fold higher concentration than OP-145 needed to inhibit S. aureus-induced IL-8 production for >50%,[7],8 fold
same,IC50,"[7]; UV-killed S. aureus JAR060131-induced IL-8, blood from one donor",1.56 µM
